{
  "source": "patent US20010050137A1",
  "about": "“Anti-microbial shoe linings, sock liners, and socks and process for manufacture of same” (priority 1995, published 2001)",
  "origin": "cited, not measured here",
  "key": {"Gliocladium virens": {"system": "Gliocladium virens", "settings": "ATCC 9645; approx. 10^5 colony-forming units/ml spores; DMSO cosolvent"}, "[1]": {"system": "most fungi (molds and yeasts)", "settings": "in general"}, "Streptococcus faecalis": {"system": "Streptococcus faecalis", "settings": "ATCC 19433; approx. 10^6 organisms/ml; DMSO cosolvent"}, "most algae": {"system": "most algae", "settings": "in general"}, "Chaetomium globosum": {"system": "Chaetomium globosum", "settings": "ATCC 6205; approx. 10^5 colony-forming units/ml spores; DMSO cosolvent"}, "Klebsiella pheumoniae": {"system": "Klebsiella pheumoniae", "settings": "ATCC 4352; approx. 10^6 organisms/ml; DMSO cosolvent"}, "[2]": {"settings": "commercial product, typical value"}, "Anacystis montana": {"system": "Anacystis montana", "settings": "DMSO cosolvent"}, "Pityrosporum Ovale": {"system": "Pityrosporum Ovale", "settings": "DMSO cosolvent"}, "Penicillium pinophilum": {"system": "Penicillium pinophilum", "settings": "ATCC 9644; approx. 10^5 colony-forming units/ml spores; DMSO cosolvent"}, "Synechocystis minima": {"system": "Synechocystis minima", "settings": "DMSO cosolvent"}, "Candida Albicans": {"system": "Candida Albicans", "settings": "ATCC 11651; DMSO cosolvent"}, "most bacteria": {"system": "most bacteria", "settings": "in general"}, "Trentopholia odorata": {"system": "Trentopholia odorata", "settings": "DMSO cosolvent"}, "[3]": {"system": "Streptoverticillium reticulum", "settings": "ATCC 25607; DMSO cosolvent"}, "Staphylococcus aureus": {"system": "Staphylococcus aureus", "settings": "ATCC 6538; approx. 10^6 organisms/ml; DMSO cosolvent"}, "[4]": {"system": "algae, mold, mildew and bacteria including E-Coli and Salmonella"}, "Fusarium sp.": {"system": "Fusarium sp.", "settings": "approx. 10^5 colony-forming units/ml spores; DMSO cosolvent"}, "Sctonema hofmaannii": {"system": "Sctonema hofmaannii", "settings": "DMSO cosolvent"}, "Pseudomonas aeruginosa": {"system": "Pseudomonas aeruginosa", "settings": "ATCC 9721; approx. 10^6 organisms/ml; DMSO cosolvent"}, "[5]": {"settings": "for Solubility: 25° C."}, "Aspergillus niger": {"system": "Aspergillus niger", "settings": "ATCC 9542; approx. 10^5 colony-forming units/ml spores; DMSO cosolvent"}, "Aureobasidium pullulans": {"system": "Aureobasidium pullulans", "settings": "ATCC 9348; approx. 10^5 colony-forming units/ml spores; DMSO cosolvent"}, "Chloroccum tetrasporum": {"system": "Chloroccum tetrasporum", "settings": "DMSO cosolvent"}, "Escherichia coli": {"system": "Escherichia coli", "settings": "ATCC 9637; approx. 10^6 organisms/ml; DMSO cosolvent"}},
  "note": "Read-outs that look alike come from different tables or passages of the source.",
  "data": [
    {"smiles": "c1cc[n+]2c(c1)[S][Zn-2]1([O]2)[O][n+]2ccccc2[S]1", "note": "[Zinc Omadine®, bis[1-hydroxy-2(1H)-pyridinethionato-0,S]-(T-4) zinc]", "values": [
      {"measurement": "Minimum Inhibitory Concentrations", "setting": "Gliocladium virens", "value": "64 Micrograms/ml (ppm)"},
      {"measurement": "MIC in vitro", "setting": "[1]", "value": "less than 5 ppm"},
      {"measurement": "Minimum Inhibitory Concentrations", "setting": "Streptococcus faecalis", "value": "16 Micrograms/ml (ppm)"},
      {"measurement": "MIC in vitro", "setting": "most algae", "value": "less than 1 ppm"},
      {"measurement": "Minimum Inhibitory Concentrations", "setting": "Chaetomium globosum", "value": "<2 Micrograms/ml (ppm)"},
      {"measurement": "Minimum Inhibitory Concentrations", "setting": "Klebsiella pheumoniae", "value": "8 Micrograms/ml (ppm)"},
      {"measurement": "Heat Stability: time stable", "setting": "[2]; at 100° C.", "value": "at least 120 hours"},
      {"measurement": "decomposition temperature", "setting": "[2]", "value": 240, "unit": "°C"},
      {"measurement": "Minimum Inhibitory Concentrations", "setting": "Anacystis montana", "value": "<0.06 Micrograms/ml (ppm)"},
      {"measurement": "Minimum Inhibitory Concentrations", "setting": "Pityrosporum Ovale", "value": "4 Micrograms/ml (ppm)"},
      {"measurement": "Minimum Inhibitory Concentrations", "setting": "Penicillium pinophilum", "value": "<2 Micrograms/ml (ppm)"},
      {"measurement": "Minimum Inhibitory Concentrations", "setting": "Synechocystis minima", "value": "<0.06 Micrograms/ml (ppm)"},
      {"measurement": "Minimum Inhibitory Concentrations", "setting": "Candida Albicans", "value": "<2 Micrograms/ml (ppm)"},
      {"measurement": "MIC in vitro", "setting": "most bacteria", "value": "less than 50 ppm"},
      {"measurement": "Minimum Inhibitory Concentrations", "setting": "Trentopholia odorata", "value": "<0.06 Micrograms/ml (ppm)"},
      {"measurement": "Minimum Inhibitory Concentrations", "setting": "[3]", "value": "4 Micrograms/ml (ppm)"},
      {"measurement": "Minimum Inhibitory Concentrations", "setting": "Staphylococcus aureus", "value": "4 Micrograms/ml (ppm)"},
      {"measurement": "inhibiting the growth of microorganisms", "setting": "[4]", "value": "capable of inhibiting the growth"},
      {"measurement": "Minimum Inhibitory Concentrations", "setting": "Fusarium sp.", "value": "32 Micrograms/ml (ppm)"},
      {"measurement": "Minimum Inhibitory Concentrations", "setting": "Sctonema hofmaannii", "value": "0.5 Micrograms/ml (ppm)"},
      {"measurement": "Minimum Inhibitory Concentrations", "setting": "Pseudomonas aeruginosa", "value": "512 Micrograms/ml (ppm)"},
      {"measurement": "Solubility", "setting": "[5]; Castor oil", "value": "<0.0001", "unit": "w/w %"},
      {"measurement": "Solubility", "setting": "[5]; Chloroform", "value": 0.3, "unit": "w/w %"},
      {"measurement": "Solubility", "setting": "[5]; Diethyleneglycol monoethyl ether", "value": 0.01, "unit": "w/w %"},
      {"measurement": "Solubility", "setting": "[5]; Dimethylsulfoxide", "value": 4, "unit": "w/w %"},
      {"measurement": "Solubility", "setting": "[5]; Ethanol, 40A", "value": 0.01, "unit": "w/w %"},
      {"measurement": "Solubility", "setting": "[5]; Ethyleneglycol monomethyl ether", "value": 0.09, "unit": "w/w %"},
      {"measurement": "Solubility", "setting": "[5]; Isopropanol", "value": 0.008, "unit": "w/w %"},
      {"measurement": "Solubility", "setting": "[5]; Isopropyl myristate", "value": "<0.0001", "unit": "w/w %"},
      {"measurement": "Solubility", "setting": "[5]; Isopropyl palmitate", "value": "<0.0001", "unit": "w/w %"},
      {"measurement": "Solubility", "setting": "[5]; Mineral oil, light", "value": "<0.0001", "unit": "w/w %"},
      {"measurement": "Solubility", "setting": "[5]; Olive oil", "value": "<0.0003", "unit": "w/w %"},
      {"measurement": "Solubility", "setting": "[5]; Polyethylene glycol 400", "value": 0.2, "unit": "w/w %"},
      {"measurement": "Solubility", "setting": "[5]; Propylene glycol", "value": 0.02, "unit": "w/w %"},
      {"measurement": "Solubility", "setting": "[5]; Water, pH 7, technical grade material, average", "value": 0.0008, "unit": "w/w %"},
      {"measurement": "Solubility in water", "setting": "[5]; water, 95 percent powder form", "value": "insoluble in water"},
      {"measurement": "Minimum Inhibitory Concentrations", "setting": "Aspergillus niger", "value": "8 Micrograms/ml (ppm)"},
      {"measurement": "Minimum Inhibitory Concentrations", "setting": "Aureobasidium pullulans", "value": "<2 Micrograms/ml (ppm)"},
      {"measurement": "Minimum Inhibitory Concentrations", "setting": "Chloroccum tetrasporum", "value": "8 Micrograms/ml (ppm)"},
      {"measurement": "Minimum Inhibitory Concentrations", "setting": "Escherichia coli", "value": "8 Micrograms/ml (ppm)"}
    ]}
  ]
}
